Experimental data reported in ChEMBL document CHEMBL3885861, “Open TG-GATES”.

Species on record: Rattus norvegicus
Experiment: Open TG-GATES - Regimen: Daily Repeat
Format: toxicity, organism-based, Sprague-Dawley
Design: regimen Daily Repeat, gender Male, age 6 weeks
Conditions: in vivo, iv, route intravenous injection; for gamma-GTP / A/G / ALP / ALT / AST / BUN / CRE / Ca / Cl / DBIL / GLC / IP / K / LDH / Na / PL / RALB / TBIL / TC / TG / TP: tissue Plasma; for APTT / Bas / Eos / Fbg / Hb / Ht / Lym / MCH / MCHC / MCV / Mono / Neu / PT / Plat / RBC / Ret / WBC: tissue Blood; for KIDNEY_L / KIDNEY_R / KIDNEY_TOTAL: tissue Kidney; for LIVER: tissue Liver
[1] = 4 mg/kg, […], dose level Low, time 14 day
[2] = 4 mg/kg, […], dose level Low, time 28 day
[3] = 12 mg/kg, 72 h, dose level Middle, time 3 day
[4] = 12 mg/kg, […], dose level Middle, time 7 day
[5] = 12 mg/kg, […], dose level Middle, time 14 day
[6] = 12 mg/kg, […], dose level Middle, time 28 day
[7] = 40 mg/kg, 72 h, dose level High, time 3 day
[8] = 40 mg/kg, […], dose level High, time 7 day

## CN(C)c1ncnc2c1ncn2[C@@H]1O[C@H](CO)[C@@H](N)[C@H]1O [PUROMYCIN AMINONUCLEOSIDE]
4 mg/kg, […], dose level Low, time 7 day
  gamma-GTP: 1.6 IU/L
[1]
  A/G: 1.1
  ALP: 1081.2 IU/L
  ALT: 35.8 IU/L
  AST: 64.2 IU/L
  BUN: 19.2 mg/dL
  CRE: 0.2 mg/dL
  Ca: 10.9 mg/dL
  Cl: 106.8 meq/L
  DBIL: 0 mg/dL
  GLC: 179.4 mg/dL
  IP: 6.8 mg/dL
  K: 4.2 meq/L
  LDH: 141.2 IU/L
  Na: 142.8 meq/L
  PL: 143.4 mg/dL
  RALB: 2.9 g/dL
  TBIL: 0.002 mg/dL
  TC: 76.8 mg/dL
  TG: 129.2 mg/dL
  TP: 5.5 g/dL
  gamma-GTP: 1.4 IU/L
[2]
  A/G: 0.7
  ALP: 666.2 IU/L
  ALT: 34.6 IU/L
  AST: 47 IU/L
  BUN: 17.2 mg/dL
  CRE: 0.2 mg/dL
  Ca: 10.4 mg/dL
  Cl: 104.2 meq/L
  DBIL: 0 mg/dL
  GLC: 181.8 mg/dL
  IP: 6.8 mg/dL
  K: 4.3 meq/L
  LDH: 134 IU/L
  Na: 142.4 meq/L
  PL: 334 mg/dL
  RALB: 2.2 g/dL
  TBIL: 0.006 mg/dL
  TC: 203.8 mg/dL
  TG: 254.2 mg/dL
  TP: 5.4 g/dL
  gamma-GTP: 1.2 IU/L
[3]
  TERMINAL_BW: 221.5 g
  APTT: 20.8 s
  Bas: 0%
  Eos: 1%
  Fbg: 305.2 mg/dL
  Hb: 13.2 g/dL
  Ht: 38.5%
  Lym: 86.2%
  MCH: 21 pg
  MCHC: 34.2%
  MCV: 61.4 fL
  Mono: 2%
  Neu: 9.8%
  PT: 16 s
  Plat: 119.7 x10_4/uL
  RBC: 626.8 x10_4/ul
  Ret: 4.3%
  WBC: 80.4 x10_2/uL
  KIDNEY_L: 0.9 g
  KIDNEY_R: 1 g
  KIDNEY_TOTAL: 1.9 g
  LIVER: 9.9 g
  A/G: 1.3
  ALP: 1198.8 IU/L
  ALT: 39.4 IU/L
  AST: 69.4 IU/L
  BUN: 20.8 mg/dL
  CRE: 0.2 mg/dL
  Ca: 11.2 mg/dL
  Cl: 104.6 meq/L
  DBIL: 0 mg/dL
  GLC: 174.4 mg/dL
  IP: 8.2 mg/dL
  K: 4.4 meq/L
  LDH: 145.6 IU/L
  Na: 141.2 meq/L
  PL: 133 mg/dL
  RALB: 3 g/dL
  TBIL: 0.016 mg/dL
  TC: 66.6 mg/dL
  TG: 67.4 mg/dL
  TP: 5.4 g/dL
  gamma-GTP: 1.8 IU/L
[4]
  TERMINAL_BW: 243.7 g
  APTT: 21 s
  Bas: 0%
  Eos: 1%
  Fbg: 304.2 mg/dL
  Hb: 13.5 g/dL
  Ht: 38.5%
  Lym: 74.4%
  MCH: 20.6 pg
  MCHC: 35%
  MCV: 58.9 fL
  Mono: 2.6%
  Neu: 21.6%
  PT: 15.8 s
  Plat: 107.5 x10_4/uL
  RBC: 653.8 x10_4/ul
  Ret: 3.3%
  WBC: 93.9 x10_2/uL
  KIDNEY_L: 1 g
  KIDNEY_R: 1 g
  KIDNEY_TOTAL: 2 g
  LIVER: 10.4 g
  A/G: 1.1
  ALP: 1114.8 IU/L
  ALT: 36.8 IU/L
  AST: 66.4 IU/L
  BUN: 21.8 mg/dL
  CRE: 0.2 mg/dL
  Ca: 10.8 mg/dL
  Cl: 107.2 meq/L
  DBIL: 0.002 mg/dL
  GLC: 174.8 mg/dL
  IP: 7.5 mg/dL
  K: 4.2 meq/L
  LDH: 139.2 IU/L
  Na: 140.4 meq/L
  PL: 139.2 mg/dL
  RALB: 2.8 g/dL
  TBIL: 0.014 mg/dL
  TC: 76.2 mg/dL
  TG: 86.8 mg/dL
  TP: 5.3 g/dL
  gamma-GTP: 1.4 IU/L
[5]
  TERMINAL_BW: 292.3 g
  APTT: 18.6 s
  Bas: 0%
  Eos: 0.8%
  Fbg: 561 mg/dL
  Hb: 13.1 g/dL
  Ht: 35.4%
  Lym: 78.2%
  MCH: 20.3 pg
  MCHC: 36.9%
  MCV: 55.1 fL
  Mono: 2.8%
  Neu: 17%
  PT: 13.1 s
  Plat: 181.7 x10_4/uL
  RBC: 641.8 x10_4/ul
  Ret: 1.3%
  WBC: 140.4 x10_2/uL
  KIDNEY_L: 1.6 g
  KIDNEY_R: 1.6 g
  KIDNEY_TOTAL: 3.2 g
  LIVER: 12.1 g
  A/G: 0.5
  ALP: 267.4 IU/L
  ALT: 31.4 IU/L
  AST: 35.8 IU/L
  BUN: 77.4 mg/dL
  CRE: 0.5 mg/dL
  Ca: 9.3 mg/dL
  Cl: 107.6 meq/L
  DBIL: 0 mg/dL
  GLC: 180.8 mg/dL
  IP: 7.8 mg/dL
  K: 4 meq/L
  LDH: 214.2 IU/L
  Na: 143.4 meq/L
  PL: 533 mg/dL
  RALB: 1.3 g/dL
  TBIL: 0 mg/dL
  TC: 344.6 mg/dL
  TG: 454 mg/dL
  TP: 4.1 g/dL
  gamma-GTP: 1.8 IU/L
[6]
  TERMINAL_BW: 237.1 g
  APTT: 15.1 s
  Bas: 0%
  Eos: 0.5%
  Fbg: 627 mg/dL
  Hb: 9.5 g/dL
  Ht: 23.8%
  Lym: 60.8%
  MCH: 18.8 pg
  MCHC: 40%
  MCV: 46.9 fL
  Mono: 5.2%
  Neu: 32%
  PT: 15.2 s
  Plat: 137.6 x10_4/uL
  RBC: 498.2 x10_4/ul
  Ret: 0.5%
  WBC: 106.1 x10_2/uL
  KIDNEY_L: 2.3 g
  KIDNEY_R: 2.3 g
  KIDNEY_TOTAL: 4.6 g
  LIVER: 12.8 g
  A/G: 0.4
  ALP: 137.2 IU/L
  ALT: 61 IU/L
  AST: 53.2 IU/L
  BUN: 86.5 mg/dL
  CRE: 1.1 mg/dL
  Ca: 8.4 mg/dL
  Cl: 104 meq/L
  DBIL: 0 mg/dL
  GLC: 158.8 mg/dL
  IP: 8.8 mg/dL
  K: 3.9 meq/L
  LDH: 391.8 IU/L
  Na: 142.2 meq/L
  PL: 854.5 mg/dL
  RALB: 1.3 g/dL
  TBIL: 0.0025 mg/dL
  TC: 589 mg/dL
  TG: 351 mg/dL
  TP: 4.5 g/dL
  gamma-GTP: 2.8 IU/L
[7]
  TERMINAL_BW: 218.3 g
  APTT: 19.2 s
  Bas: 0%
  Eos: 0.6%
  Fbg: 356 mg/dL
  Hb: 13.3 g/dL
  Ht: 38.2%
  Lym: 88.4%
  MCH: 20.4 pg
  MCHC: 34.7%
  MCV: 58.9 fL
  Mono: 2.4%
  Neu: 7.4%
  PT: 15.9 s
  Plat: 136.4 x10_4/uL
  RBC: 649 x10_4/ul
  Ret: 2%
  WBC: 82.2 x10_2/uL
  KIDNEY_L: 0.9 g
  KIDNEY_R: 1 g
  KIDNEY_TOTAL: 1.9 g
  LIVER: 9.6 g
  A/G: 1.2
  ALP: 892.8 IU/L
  ALT: 40.6 IU/L
  AST: 62 IU/L
  BUN: 24.2 mg/dL
  CRE: 0.2 mg/dL
  Ca: 12.3 mg/dL
  Cl: 102.8 meq/L
  DBIL: 0 mg/dL
  GLC: 179.6 mg/dL
  IP: 10.8 mg/dL
  K: 4.4 meq/L
  LDH: 154.8 IU/L
  Na: 141.2 meq/L
  PL: 153 mg/dL
  RALB: 3 g/dL
  TBIL: 0.022 mg/dL
  TC: 82 mg/dL
  TG: 64.4 mg/dL
  TP: 5.5 g/dL
  gamma-GTP: 1.8 IU/L
[8]
  TERMINAL_BW: 221.5 g
  APTT: 18 s
  Bas: 0%
  Eos: 0.6%
  Fbg: 621.8 mg/dL
  Hb: 13.7 g/dL
  Ht: 37.4%
  Lym: 84.8%
  MCH: 20.5 pg
  MCHC: 36.6%
  MCV: 56.2 fL
  Mono: 2.6%
  Neu: 10.8%
  PT: 13 s
  Plat: 106.2 x10_4/uL
  RBC: 665.2 x10_4/ul
  Ret: 0.8%
  WBC: 108.1 x10_2/uL
  KIDNEY_L: 1.2 g
  KIDNEY_R: 1.2 g
  KIDNEY_TOTAL: 2.4 g
  LIVER: 8.2 g
  A/G: 0.4
  ALP: 264.4 IU/L
  ALT: 65.8 IU/L
  AST: 78.6 IU/L
  BUN: 166.8 mg/dL
  CRE: 1 mg/dL
  Ca: 9.1 mg/dL
  Cl: 101 meq/L
  DBIL: 0 mg/dL
  GLC: 164.4 mg/dL
  IP: 12.6 mg/dL
  K: 5 meq/L
  LDH: 484 IU/L
  Na: 135.4 meq/L
  PL: 387.2 mg/dL
  RALB: 1.1 g/dL
  TBIL: 0.01 mg/dL
  TC: 266.6 mg/dL
  TG: 125.6 mg/dL
  TP: 3.5 g/dL
  gamma-GTP: 2.4 IU/L
